{
  "source": "patent US8802702B2",
  "about": "“Compounds for reducing drug resistance and uses thereof” (The General Hospital Corporation, priority 2009, dated 2014)",
  "key": {"[1]": {"tested_on": "MDR cell lines where MDR1 (Pgp1) is highly expressed", "experiment": "Reversal of chemoresistance across panel of MDR cell lines with various anti-cancer agents", "experimental": "Screening conditions in drug resistant cells were optimized in 96-well plates for optimal growth conditions, small molecular compound and drug concentration and assay times prior to screening. On day 1, drug resistant cells were seeded at 2×10^4 cells/well on 96-well plates and labeled with plates A, B, and incubated for 24 hr at 37° C. On day 2, plate A was treated with a test compound at 1 μM to each well without paclitaxel; Plate B was treated with both a test compound and paclitaxe at specifically prescribed concentrations. From day 4 to day 6, fresh medium was replaced with necessity as described above and evaluated for cytotoxicity under the microscope. On Day 6, the number of viable cells was evaluated for cytotoxicity in any wells under the microscope manually and final results were determined via […]96™ AQ One Solution Cell Cytotoxicity Assay (Promega, Madison, Wis.) by a SPECTRAIVIAX.™ Microplate Spectrophotometer (Molecular Devices, Sunnyvale, Calif.).\nThe general format was designed for screening the small molecular compound library and identifying novel drug resistant inhibitor. These include evaluation of each small molecular compound through a well studied multidrug resistant cell line SKOV-3TR. The experiments were conducted in two control plates (A and B) and one experimental plate (C) to permit plate-to-plate comparisons (FIG. 1). The control plates (plate A and B) were used to evaluate cytotoxicity of paclitaxel and small molecular compound itself, and to exclude compound that were lethal to the cells in the absence of chemotherapy drug. […] because the goal of this study was to identify small molecular compound that can reverse drug resistance and not to determine cell toxicity. […] Small molecular compound that were associated with cell survival in plate A and plate B and death in plate C were identified as “hits” and selected for further study.\nFurthermore, other cell lines with non-Pgp1 mediated MDR mechanisms were tested (H69/AR cells that express MRP1, but not Pgp1, and MCF-7 MX cells that express BCRP, but not Pgp1) to evaluate the specificity of NSC23925."}, "[2]": {"tested_on": "H69/AR cells (express MRP1, not Pgp1)", "experiment": "Reversal of drug resistance in non-Pgp1 MDR cells expressing MRP1", "format": "cell-based, human"}, "SKOV-3 and OVCAR8 cells": {"tested_on": "SKOV-3 and OVCAR8 cells", "experiment": "Calcein AM drug efflux assay in parental drug-sensitive cells", "format": "cell-based, human", "conditions": "SKOV-3 and OVCAR8, do not overexpress Pgp1", "from_the_text": "The VYBRANT™ multi-drug resistance assay kit (Invitrogen/Molecular Probes) was used to measure drug efflux properties of different resistant cell lines. This assay utilizes the fluorogenic dye calcein acetoxymethyl ester (calcein AM) as a substrate for efflux activity of Pgp1 or other membrane pump ABC proteins. Calcein AM is taken up by cells and hydrolyzed by cytoplasmic esterases to fluorescent calcein. Calcein AM is well retained in the cytosol. However, multi-drug resistant cells expressing high levels of Pgp1 rapidly extrude non-fluorescent calcein AM from the plasma membrane, reducing accumulation of fluorescent calcein in the cytosol. Drug sensitive and resistant cells (3×10^5) were cultured in 96-well plate for 24 hours and then incubated in 0.25 μM calcein AM in 150 μl total volume. After 30 minutes, the cells in plate were washed and centrifuged twice with 200 μl cold RPMI1640 culture medium, and cell fluorescence was measured at a […] on a SPECTRAMAX™ Microplate Spectrofluorometer (Molecular Devices)."}, "[3]": {"target": "purified recombinant human Pgp1 membrane protein (Homo sapiens, UniProt P08183)", "sequence (P08183 whole entry)": "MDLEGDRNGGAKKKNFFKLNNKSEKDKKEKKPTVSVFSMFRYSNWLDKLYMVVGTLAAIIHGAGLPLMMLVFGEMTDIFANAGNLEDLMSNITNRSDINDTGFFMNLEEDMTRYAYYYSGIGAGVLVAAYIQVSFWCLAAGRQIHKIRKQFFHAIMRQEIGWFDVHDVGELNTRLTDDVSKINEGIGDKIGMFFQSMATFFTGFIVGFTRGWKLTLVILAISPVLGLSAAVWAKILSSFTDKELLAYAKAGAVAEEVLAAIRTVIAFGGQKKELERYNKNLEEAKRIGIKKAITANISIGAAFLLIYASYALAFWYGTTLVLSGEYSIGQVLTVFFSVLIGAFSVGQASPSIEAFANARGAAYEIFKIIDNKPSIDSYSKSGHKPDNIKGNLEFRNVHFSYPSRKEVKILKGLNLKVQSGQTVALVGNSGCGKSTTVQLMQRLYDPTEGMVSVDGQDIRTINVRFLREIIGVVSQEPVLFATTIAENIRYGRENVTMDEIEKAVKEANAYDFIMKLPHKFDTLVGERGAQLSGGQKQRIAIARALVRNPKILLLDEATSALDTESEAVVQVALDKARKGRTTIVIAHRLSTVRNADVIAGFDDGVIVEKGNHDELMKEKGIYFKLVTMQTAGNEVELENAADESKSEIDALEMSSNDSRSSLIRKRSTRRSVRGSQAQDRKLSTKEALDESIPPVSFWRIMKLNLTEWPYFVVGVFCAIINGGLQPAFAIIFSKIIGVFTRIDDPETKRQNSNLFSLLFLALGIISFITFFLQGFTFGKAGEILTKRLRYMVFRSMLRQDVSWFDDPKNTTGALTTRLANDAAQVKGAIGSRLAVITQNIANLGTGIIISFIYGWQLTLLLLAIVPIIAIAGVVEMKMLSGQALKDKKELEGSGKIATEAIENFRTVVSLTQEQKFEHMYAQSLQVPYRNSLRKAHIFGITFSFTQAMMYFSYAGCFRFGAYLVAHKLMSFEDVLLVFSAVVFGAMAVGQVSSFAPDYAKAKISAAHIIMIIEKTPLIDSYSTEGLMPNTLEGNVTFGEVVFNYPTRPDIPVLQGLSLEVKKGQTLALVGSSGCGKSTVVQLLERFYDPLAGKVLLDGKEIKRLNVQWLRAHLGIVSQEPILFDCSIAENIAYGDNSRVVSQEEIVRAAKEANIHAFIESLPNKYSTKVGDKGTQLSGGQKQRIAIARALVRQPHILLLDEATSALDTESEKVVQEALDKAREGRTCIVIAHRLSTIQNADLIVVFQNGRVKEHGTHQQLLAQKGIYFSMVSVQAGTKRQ", "experimental": "Luminescence was read on a BMG LABTECH Polarstar Optima Luminometer. The decrease in luminescence of untreated samples compared to samples plus Na3VO4(ARLUbasal) represents basal Pgp1 ATPase activity. […] E: Effect of NSC23925 on expression of Pgp1 in paclitaxel resistant cells. The paclitaxel resistant cell line SKOV-3TR was treated with different concentration of NSC23925 for 48 h. Equal amounts (20 μg protein) of total cell lysates were used for each sample. Pgp1 expression was determined by Western blot as described in the Examples section below.\nThe Pgp-Glo™ Assay Systems (Promega) provide the necessary reagents for performing luminescent P-glycoprotein (Pgp)-ATPase assays. The ATPase assay provides a rapid, […], compound-independent measure of the concentration-dependence of any interaction of a drug with Ppg1. […] Luminescence was read on a BMG LABTECH Polarstar Optima Luminometer. The decrease in luminescence of NT samples compared to samples plus Na3VO4 (ΔRLUbasal) represents basal Pgp-ATPase activity.\nPgp-ATPase assay is a valuable screening tool for determining if a drug interacts with Pgp."}, "[4]": {"tested_on": "Pgp1 expression in SKOV-3TR cells", "experiment": "Pgp1 expression by Western blot", "format": "cell-based, human", "conditions": "NSC23925 up to 10 μM for 48 h"}, "[5]": {"conditions": "value = anti-cancer drug used in conjunction"}},
  "note": "Entries after “also recorded” stand apart in the source; their conditions may differ.",
  "data": [
    {"smiles": "COc1ccc(-c2cc(C(O)C3CCCCN3)c3ccccc3n2)cc1", "note": "(stereo not drawn) [NSC23925, (2-(4-methoxyphenyl)quinolin-4-yl)(piperidin-2-yl)methanol]", "values": [
      {"measurement": "Reversal of chemoresistance in tumor types where MDR1 is highly expressed", "setting": "[1]; SKOV-3TR, OVCAR8TR, MCF-7TR, MESSA/Dx5, KHOS R2, U-2OSDR", "result": "reverses chemoresistance"},
      {"measurement": "Effect on cytotoxicity of cisplatin and methotrexate", "setting": "[1]; agents unaffected by MDR1 mechanisms", "result": "did not alter the cytotoxicity"},
      {"measurement": "Reverse Drug Resistance by NSC23925: Decreased drug resistance (to the anti-cancer drug named in the cell)", "setting": "[1]; [5]", "result": "Vincristine; also recorded: Gemcitabine; also recorded: ET-743; also recorded: PM00104; also recorded: Paclitaxel; also recorded: Docetaxel; also recorded: Doxorubicin; also recorded: Daunorubicin"},
      {"measurement": "Reverse Drug Resistance by NSC23925: No effect (on the anti-cancer drug named in the cell)", "setting": "[1]; [5]", "result": "Cisplatin; also recorded: Carboplatin; also recorded: Topotecan; also recorded: Methotrexate"},
      {"measurement": "Reversal of chemoresistance in conjunction with anti-cancer agents", "setting": "[1]; with paclitaxel, docetaxel, doxorubicin, daunorubicin, gemcitabine, vincristine, ET-743 or PM00104", "result": "significant reversal of chemoresistance"},
      {"measurement": "Reversal of drug resistance in H69/AR cells", "setting": "[2]", "result": "unable to reverse drug resistance"},
      {"measurement": "Effect on accumulation of calcein AM in parental drug-sensitive cells", "setting": "SKOV-3 and OVCAR8 cells", "result": "no evident effect"},
      {"measurement": "Stimulation of Pgp-ATPase activity", "setting": "[3]", "result": "> 30", "unit": "%"},
      {"measurement": "Expression level of Pgp1", "setting": "[4]", "result": "not affected"}
    ]}
  ]
}
